BindingDB's records for doi:10.1016/j.ejmech.2014.06.070 (The University of Newcastle, 2014)

experiment: Inhibition of Dynamin 1 in serum-starved human U2OS cells assessed as inhibition of clathrin-mediated […]-cojugated transferrin uptake pretreated for 30 mins by high-content imaging method

SMILES | IC50 [µM]
O=C1C=C(NCc2ccccc2)C(=O)C=C1NCc1ccccc1 | 120
O=C1C=C(Nc2ccccc2C(=O)O)C(=O)C=C1Nc1ccccc1C(=O)O [2,2'-(3,6-dioxocyclohexa-1,4-diene-1,4-diyl)bis(azanediyl)dibenzoic acid] | 162

Continued, values first:

IC50 [µM] | SMILES
> 300 | O=C1C=C(Nc2cccc(C(=O)O)c2)C(=O)C=C1Nc1cccc(C(=O)O)c1
200 | O=C1C=C(Nc2ccc(C(=O)O)cc2)C(=O)C=C1Nc1ccc(C(=O)O)cc1
36 | O=C1C=C(Nc2ccc(O)cc2)C(=O)C=C1Nc1ccc(O)cc1
